smiles,measurement,value
"NS(=O)(=O)c1ccc(-c2nc(-c3cnn4c(C(F)(F)F)cc(-c5ccc(C(F)(F)F)cc5)nc34)no2)cc1 [Example 14, 4-{3-[7-Trifluoromethyl-5-(4-trifluoromethyl-phenyl)-pyrazolo[1,5-a]pyrimidin-3-yl]-[1,2,4]oxadiazol-5-yl}-benzenesulfonamide]",melting point,292 °C
"NS(=O)(=O)c1cccc(-c2noc(-c3cnn4c(C(F)(F)F)cc(-c5ccc(Cl)cc5)nc34)n2)c1 [Example 10, 3-{5-[5-(4-Chloro-phenyl)-7-trifluoromethyl-pyrazolo[1,5-a]pyrimidin-3-yl]-[1,2,4]oxadiazol-3-yl}-benzenesulfonamide]",melting point,247 °C
"Nc1ncc(-c2noc(-c3cnn4c(C(F)(F)F)cc(-c5ccc(Cl)cc5)nc34)n2)cn1 [Example 82, 5-{5-[5-(4-Chloro-phenyl)-7-trifluoromethyl-pyrazolo[1,5-a]pyrimidin-3-yl]-[1,2,4]oxadiazol-3-yl}-pyrimidin-2-ylamine]",melting point,268 °C
"Nc1ncc(-c2noc(-c3cnn4c(C(F)(F)F)cc(-c5ccc(C(F)(F)F)c(F)c5)nc34)n2)cn1 [Example 79, 5-{5-[5-(3-Fluoro-4-trifluoromethyl-phenyl)-7-trifluoromethyl-pyrazolo[1,5-a]pyrimidin-3-yl]-[1,2,4]oxadiazol-3-yl}-pyrimidin-2-ylamine]",melting point,270 °C
"NS(=O)(=O)c1ccc(-c2noc(-c3cnn4ccc(-c5ccc(C(F)(F)F)cc5)nc34)n2)s1 [Example 52, 5-{5-[5-(4-Trifluoromethyl-phenyl)-pyrazolo[1,5-a]pyrimidin-3-yl]-[1,2,4]oxadiazol-3-yl}-thiophene-2-sulfonic acid amide]",melting point,251 °C
"NS(=O)(=O)c1ccc(-c2noc(-c3cnc4ccc(-c5ccc(Cl)cc5)cn34)n2)s1 [Example 55, 5-{5-[6-(4-Chloro-phenyl)-imidazo[1,2-a]pyridin-3-yl]-[1,2,4]oxadiazol-3-yl}-thiophene-2-sulfonic acid amide]",melting point,263 °C
"Cc1cc(-c2cc(C(F)(F)F)n3ncc(-c4nc(-c5ccc(S(N)(=O)=O)cc5)no4)c3n2)ccc1C(F)(F)F [Example 18, 4-{5-[5-(3-Methyl-4-trifluoromethyl-phenyl)-7-trifluoromethyl-pyrazolo[1,5-a]pyrimidin-3-yl]-[1,2,4]oxadiazol-3-yl}-benzenesulfonamide]",melting point,273 °C
"Cc1cc(-c2ccc(C(F)(F)F)cc2)cn2c(-c3nc(-c4ccc(S(N)(=O)=O)s4)no3)cnc12 [Example 45, 5-{5-[8-Methyl-6-(4-trifluoromethyl-phenyl)-imidazo[1,2-a]pyridin-3-yl]-[1,2,4]oxadiazol-3-yl}-thiophene-2-sulfonic acid amide]",melting point,285 °C
"Nc1ccc(-c2noc(-c3cnn4c(C(F)(F)F)cc(-c5ccc(C(F)(F)F)c(F)c5)nc34)n2)cn1 [Example 75, 5-{5-[5-(3-Fluoro-4-trifluoromethyl-phenyl)-7-trifluoromethyl-pyrazolo[1,5-a]pyrimidin-3-yl]-[1,2,4]oxadiazol-3-yl}-pyridin-2-ylamine]",melting point,233 °C
"Nc1ccc(-c2noc(-c3cnn4c(C(F)F)cc(-c5ccc(C(F)(F)F)c(OCC(F)(F)F)c5)nc34)n2)cn1 [Example 71, 5-(5-{7-Difluoromethyl-5-[3-(2,2,2-trifluoro-ethoxy)-4-trifluoromethyl-phenyl]-pyrazolo[1,5-a]pyrimidin-3-yl}-[1,2,4]oxadiazol-3-yl)-pyridin-2-ylamine]",melting point,285 °C
"Nc1ncc(-c2noc(-c3cnn4c(C(F)(F)F)cc(-c5ccc(F)c(F)c5)nc34)n2)cn1 [Example 78, 5-{5-[5-(3,4-Difluoro-phenyl)-7-trifluoromethyl-pyrazolo[1,5-a]pyrimidin-3-yl]-[1,2,4]oxadiazol-3-yl}-pyrimidin-2-ylamine]",melting point,268 °C
"NS(=O)(=O)c1cccc(-c2noc(-c3cnn4ccc(-c5ccc(C(F)(F)F)cc5)nc34)n2)c1 [Example 53, 3-{5-[5-(4-Trifluoromethyl-phenyl)-pyrazolo[1,5-a]pyrimidin-3-yl]-[1,2,4]oxadiazol-3-yl}-benzenesulfonamide]",melting point,270 °C
"Cc1cc(-c2ccc(Cl)cc2)cn2c(-c3nc(-c4cccc(S(N)(=O)=O)c4)no3)cnc12 [Example 40, 3-{5-[6-(4-Chloro-phenyl)-8-methyl-imidazo[1,2-a]pyridin-3-yl]-[1,2,4]oxadiazol-3-yl}-benzenesulfonamide]",melting point,301 °C
"NS(=O)(=O)c1ccc(-c2noc(-c3cnn4c(C(F)(F)F)cc(-c5ccc(Cl)cc5)nc34)n2)s1 [Example 28, 5-{5-[5-(4-Chloro-phenyl)-7-trifluoromethyl-pyrazolo[1,5-a]pyrimidin-3-yl]-[1,2,4]oxadiazol-3-yl}-thiophene-2-sulfonic acid amide]",melting point,294 °C
"Nc1cc(-c2noc(-c3cnn4c(C(F)(F)F)cc(-c5ccc(Cl)cc5)nc34)n2)ccn1 [Example 85, 4-{5-[5-(4-Chloro-phenyl)-7-trifluoromethyl-pyrazolo[1,5-a]pyrimidin-3-yl]-[1,2,4]oxadiazol-3-yl}-pyridin-2-ylamine]",melting point,252 °C
"Nc1ccc(-c2noc(-c3cnn4c(C(F)F)cc(-c5ccc(Cl)cc5)nc34)n2)cn1 [Example 63, 5-{5-[5-(4-Chloro-phenyl)-7-difluoromethyl-pyrazolo[1,5-a]pyrimidin-3-yl]-[1,2,4]oxadiazol-3-yl}-pyridin-2-ylamine]",melting point,254 °C
"NS(=O)(=O)c1ccc(-c2nc(-c3cnn4c(C(F)(F)F)cc(-c5ccc(C(F)(F)F)cc5)nc34)no2)s1 [Example 33, 5-{3-[7-Trifluoromethyl-5-(4-trifluoromethyl-phenyl)-pyrazolo[1,5-a]pyrimidin-3-yl]-[1,2,4]oxadiazol-5-yl}-thiophene-2-sulfonic acid amide]",melting point,272 °C
"Nc1cc(-c2noc(-c3cnn4c(C(F)(F)F)cc(-c5ccc(Cl)c(Cl)c5)nc34)n2)ccn1 [Example 86, 4-{5-[5-(3,4-Dichloro-phenyl)-7-trifluoromethyl-pyrazolo[1,5-a]pyrimidin-3-yl]-[1,2,4]oxadiazol-3-yl}-pyridin-2-ylamine]",melting point,262 °C
"NS(=O)(=O)c1cccc(-c2noc(-c3cnn4c(C(F)(F)F)cc(-c5cccc(C(F)(F)F)c5)nc34)n2)c1 [Example 26, 3-{5-[7-Trifluoromethyl-5-(3-trifluoromethyl-phenyl)-pyrazolo[1,5-a]pyrimidin-3-yl]-[1,2,4]oxadiazol-3-yl}-benzenesulfonamide]",melting point,251 °C
"CCOc1cc(-c2cc(C(F)(F)F)n3ncc(-c4nc(-c5ccc(N)nc5)no4)c3n2)ccc1C(F)(F)F [Example 69, 5-{5-[5-(3-Ethoxy-4-trifluoromethyl-phenyl)-7-trifluoromethyl-pyrazolo[1,5-a]pyrimidin-3-yl]-[1,2,4]oxadiazol-3-yl}-pyridin-2-ylamine]",melting point,263 °C
"NS(=O)(=O)c1cccc(-c2noc(-c3cnn4c(C(F)F)cc(-c5ccc(C(F)(F)F)cc5)nc34)n2)c1 [Example 5, 3-{5-[7-Difluoromethyl-5-(4-trifluoromethyl-phenyl)-pyrazolo[1,5-a]pyrimidin-3-yl]-[1,2,4]oxadiazol-3-yl}-benzenesulfonamide]",melting point,267 °C
"Cc1cc(-c2cc(C(F)(F)F)n3ncc(-c4nc(-c5ccc(S(N)(=O)=O)s5)no4)c3n2)ccc1C(F)(F)F [Example 22, 5-{5-[5-(3-Methyl-4-trifluoromethyl-phenyl)-7-trifluoromethyl-pyrazolo[1,5-a]pyrimidin-3-yl]-[1,2,4]oxadiazol-3-yl}-thiophene-2-sulfonic acid amide]",melting point,324 °C
"Nc1cc(-c2noc(-c3cnn4c(C(F)(F)F)cc(-c5ccc(C(F)(F)F)cc5)nc34)n2)ccn1 [Example 58, 4-{5-[7-Trifluoromethyl-5-(4-trifluoromethyl-phenyl)-pyrazolo[1,5-a]pyrimidin-3-yl]-[1,2,4]oxadiazol-3-yl}-pyridin-2-ylamine]",melting point,277 °C
"NS(=O)(=O)c1cccc(-c2noc(-c3cnc4ccc(-c5ccc(C(F)(F)F)cc5)cn34)n2)c1 [Example 51, 3-{5-[6-(4-Trifluoromethyl-phenyl)-imidazo[1,2-a]pyridin-3-yl]-[1,2,4]oxadiazol-3-yl}-benzenesulfonamide]",melting point,288 °C
"Cc1cc(-c2cc(C(F)(F)F)n3ncc(-c4nc(-c5cccc(S(N)(=O)=O)c5)no4)c3n2)ccc1C(F)(F)F [Example 17, 3-{5-[5-(3-Methyl-4-trifluoromethyl-phenyl)-7-trifluoromethyl-pyrazolo[1,5-a]pyrimidin-3-yl]-[1,2,4]oxadiazol-3-yl}-benzenesulfonamide]",melting point,270 °C
"NS(=O)(=O)c1cccc(-c2nc(-c3cnn4c(C(F)(F)F)cc(-c5ccc(C(F)(F)F)cc5)nc34)no2)c1 [Example 15, 3-{3-[7-Trifluoromethyl-5-(4-trifluoromethyl-phenyl)-pyrazolo[1,5-a]pyrimidin-3-yl]-[1,2,4]oxadiazol-5-yl}-benzenesulfonamide]",melting point,285 °C
"Cc1cc(-c2cc(C(F)(F)F)n3ncc(-c4nc(-c5cnc(N)nc5)no4)c3n2)ccc1Cl [Example 84, 5-{5-[5-(4-Chloro-3-methyl-phenyl)-7-trifluoromethyl-pyrazolo[1,5-a]pyrimidin-3-yl]-[1,2,4]oxadiazol-3-yl}-pyrimidin-2-ylamine]",melting point,272 °C
"Cc1cc(-c2ccc(C(F)(F)F)cc2)cn2c(-c3nc(-c4ccnc(N)c4)no3)cnc12 [Example 60, 4-{5-[8-Methyl-6-(4-trifluoromethyl-phenyl)-imidazo[1,2-a]pyridin-3-yl]-[1,2,4]oxadiazol-3-yl}-pyridin-2-ylamine]",melting point,264 °C
"Nc1ccc(-c2noc(-c3cnn4c(C(F)F)cc(-c5ccc(Cl)c(Cl)c5)nc34)n2)cn1 [Example 66, 5-{5-[5-(3,4-Dichloro-phenyl)-7-difluoromethyl-pyrazolo[1,5-a]pyrimidin-3-yl]-[1,2,4]oxadiazol-3-yl}-pyridin-2-ylamine]",melting point,279 °C
"Nc1cc(-c2noc(-c3cnn4ccc(-c5ccc(C(F)(F)F)cc5)nc34)n2)ccn1 [Example 59, 4-{5-[5-(4-Trifluoromethyl-phenyl)-pyrazolo[1,5-a]pyrimidin-3-yl]-[1,2,4]oxadiazol-3-yl}-pyridin-2-ylamine]",melting point,250 °C

# Source: US8349844B2, “Substituted pyrazolo [1,5-A] pyrimidines as metabotropic glutamate antagonists” (Hoffmann-La Roche Inc., priority 2005, dated 2013)
